Values joined by “and” are separate entries in the source; they are usually repeats but may differ in a detail not shown here. Identical values can stand only once.
Tests used:
[1] = cited from earlier work
mouse model of ARDS = conditions: treatment; cited from earlier work
physchem = conditions: for solubility at 16 h: 25 °C, pH 7.4, aqueous buffer, kinetic from dmso stock
Experimental: 2.79 g of K2HPO4 and 0.54 g of KH2PO4 was dissolved in 390 mL of milliQ water. pH was adjusted to 7.4 using 1N HCl/1N NaOH and final volume was made up to 400 mL with milliQ water.
In case of compounds not soluble/less quantity submission, 40/20/10Mm stocks were prepared and used for experiment.
Assay Procedure: • 245 μL of 50 mM phosphate buffer then 5 μL each of test compound/standards (80 mM) in their respective positions was added to the 1.1 mL 96 well plate. • DMSO Controls was prepared by taking 245 μL of 100% DMSO then 5 μL each of test compound in their respective positions and added to the 1.1 mL 96 well plate • Plate was incubated with mixing at 1600 RPM for 16 hours at room temperature (˜23 MC). • After incubation, samples were filtered using Millipore plates. • Filtrates were analysed by HPLC-UV.
Solubility is calculated using the following formula: […]

[2] = biological target: erythrocyte KCa3.1 channels (Homo sapiens (Human), UniProt O15554); experiment: Erythrocyte KCa3.1 assay; format: cell-based; conditions: human erythrocytes, A23187-activated KCa3.1; read-out: RBC K (in vitro) Human IC50 (μM) Potency category
Experimental: Human blood was drawn from healthy human volunteers in a standard heparinized blood sampling vial (Vacutainer, Li/heparin, ED Bioscience, Plymouth, UK). The erythrocytes were packed by centrifugation, and the plasma and buffy coat were removed by aspiration. Erythrocytes were washed three times in the experimental salt solution and then stored at 0° C. until use. Blood samples from NMRI mice or from Wistar rats were treated similarly. The methodological principle is outlined in Macey et al. (1978) and further described in Strøbaek et al. (2013). Activation of the erythrocyte KCa3.1 channels were obtained by addition of the Ca^2+ ionophore A23187, which causes synchronized hyperpolarization, which is reported as a CCCP-mediated shift in the unbuffered extracellular pH of the erythrocyte suspension. Standard procedure: 3 mL unbuffered experimental salt solution (in mM: 2 KCl, 154 NaCl, 0.05 CaCl2) was heated to 37° C. with stirring. Packed erythrocytes were added (50 μL, final cytocrit 1.5%), and the extracellular pH (pHo) followed with a glass/calomel (pHG200-8/REF200, Radiometer, Denmark) electrode pair. CCCP (3 μL, final concentration 20 μM) was added followed by varying concentrations of test compounds (DMSO concentration constant). After pH stabilization at ˜7.2, A23187 (3 μL, final concentration 0.33 μM) was added to initiate the experiment. After the peak hyperpolarization was attained, the intracellular pH (pHi constant during the experiment) was found by haemolysing the erythrocytes via addition of 100 μL of Triton-X100.
The erythrocyte membrane potential, Vm, was calculated according to: […]
and the fractional remaining Ca^2+-activated K^+-conductance at the concentration C of blocker, fGK(C), was calculated from
where the K^+ equilibrium potential EK=−107 mV, the Cl^− equilibrium potential ECl=−12 mV and the Vm(0) and Vm(C) are the peak hyperpolarizations in the control and in the presence of a concentration of C of blocker respectively.
IC50 values for compounds were calculated from a plot of fGK(C) versus C by a fit to the Hill equation, using a custom program written in the IGOR-Pro software (WaveMetrics, Lake Oswego, OR, USA). All IC50-values are reported in μM.

[3] = 50 mM potassium phosphate buffer pH 7.40, 16 hr at ~25° C., incubation concentration 1600 μM

solubility at 16 h (physchem)	IC50 [2]	SMILES	further results
		Clc1ccccc1C(c1ccccc1)(c1ccccc1)n1cccn1 [TRAM-34]	Water solubility [1]: extremely low; Gas exchange (mouse model of ARDS): improvement was also demonstrated
558 µg/mL and 1500 µM	< 0.3 µM	COC(=O)N(C[C@H]1CCCN1C)C1(c2ccc(F)c(C(F)(F)F)c2)CC1 [Methyl (R)-(1-(4-fluoro-3-(trifluoromethyl)phenyl)cyclopropyl)((1-methylpyrrolidin-2-yl)methyl)carbamate]	
558 µg/mL and 1500 µM	< 0.3 µM	COC(=O)N(CC1CCN1)C1(c2ccc(F)c(OC(F)(F)F)c2)CC1 (centres unmarked) [Methyl (azetidin-2-ylmethyl)(1-(4-fluoro-3-(trifluoromethoxy)phenyl)cyclopropyl)carbamate]	
481 µg/mL and 1400 µM	< 0.3 µM	CC(C)(N)CN(C1CC1)C1(c2cccc(C(F)(F)F)c2)CC1 [N1-cyclopropyl-2-methyl-N1-(1-(3-(trifluoromethyl)phenyl)cyclopropyl)propane-1,2-diamine]	
578 µg/mL and 1600 µM	< 0.3 µM	COC(=O)N(CC(C)(C)N)C1(c2cc(Cl)cc(Cl)c2)CC1 [Methyl (2-amino-2-methylpropyl)(1-(3,5-dichlorophenyl)cyclopropyl)carbamate]	
653 µg/mL and 1600 µM	< 0.3 µM	COC(=O)N(C[C@@H]1CCCN1)C1(c2ccc(F)c(C(F)(F)F)c2)CC1 [Methyl (S)-(1-(4-fluoro-3-(trifluoromethyl)phenyl)cyclopropyl)(pyrrolidin-2-ylmethyl)carbamate]	
585 µg/mL and 1400 µM	< 0.3 µM	COC(=O)N(C[C@@]1(C)CCCN1)C1(c2ccc(F)c(C(F)(F)F)c2)CC1 [Methyl (R)-(1-(4-fluoro-3-(trifluoromethyl)phenyl)cyclopropyl)((2-methylpyrrolidin-2-yl)methyl)carbamate]	
480 µg/mL and 1400 µM	< 0.3 µM	N[C@H]1CCC[C@H]1NC1(c2ccc(F)c(C(F)(F)F)c2)CC1 [(1R,2S)-N1-(1-(4-fluoro-3-(trifluoromethyl)phenyl)cyclopropyl)-cyclopentane-1,2-diamine]	
591 µg/mL and 1700 µM	< 1 µM	COC(=O)N(C[C@@H]1CCN1)C1(c2ccc(F)c(C(F)(F)F)c2)CC1 [Methyl (S)-(azetidin-2-ylmethyl)(1-(4-fluoro-3-(trifluoromethyl)phenyl)-cyclopropyl)carbamate]	
600 µg/mL and 1500 µM	< 0.3 µM	COC(=O)N(C[C@H]1COCCN1C)C1(c2ccc(F)c(C(F)(F)F)c2)CC1 [Methyl (S)-(1-(4-fluoro-3-(trifluoromethyl)phenyl)cyclopropyl)((4-methylmorpholin-3-yl)methyl)carbamate]	
	< 0.3 µM	COC(=O)N(C[C@@H]1CCCN1C)C1(c2ccc(F)c(C(F)(F)F)c2)CC1 [Methyl (S)-(1-(4-fluoro-3-(trifluoromethyl)phenyl)cyclopropyl) ((1-methylpyrrolidin-2-yl)methyl) carbamate]	Measured Solubility in pH 7.4 phosphate buffer (mg/ml) (physchem; [3]): 0.5918 mg/ml; Measured Solubility in pH 7.4 phosphate buffer (μM) (physchem; [3]): 1600 μM
615 µg/mL and 1600 µM	< 0.3 µM	CC(C)OC(=O)N(C[C@@H]1CCCN1)C1(c2ccc(F)c(C(F)(F)F)c2)CC1 [Isopropyl (S)-(1-(4-fluoro-3-(trifluoromethyl)phenyl)cyclopropyl)(pyrrolidin-2-ylmethyl)carbamate]	
674 µg/mL and 1600 µM	< 0.3 µM	COC(=O)N(C[C@@H]1CCCN1)C1(c2ccc(F)c(OC(F)(F)F)c2)CC1 [Methyl (S)-(1-(4-fluoro-3-(trifluoromethoxy)phenyl)cyclopropyl)(pyrrolidin-2-ylmethyl)carbamate]	
		NC(=O)C(c1ccccc1)(c1ccc(F)cc1)c1ccc(F)cc1 [senicapoc]	Water solubility [1]: extremely low; Gas exchange (mouse model of ARDS): improvement was also demonstrated
667 µg/mL and 1700 µM	< 0.3 µM	COC(=O)N(C[C@H]1CCCN1)C1(c2ccc(F)c(C(F)(F)F)c2)CC1 [Methyl (R)-(1-(4-fluoro-3-(trifluoromethyl)phenyl)cyclopropyl)(pyrrolidin-2-ylmethyl)carbamate]	
607 µg/mL and 1500 µM	< 0.3 µM	CCOC(=O)N(CC(C)(C)N)C1(c2ccc(F)c(C(F)(F)F)c2)CC1 [Ethyl (2-amino-2-methylpropyl)(1-(4-fluoro-3-(trifluoromethyl)phenyl)cyclopropyl)carbamate]	
584 µg/mL and 1500 µM	< 0.3 µM	COC(=O)N(CC(C)(C)N)C1(c2ccc(F)c(OC(F)(F)F)c2)CC1 [Methyl (2-amino-2-methylpropyl)(1-(4-fluoro-3-(trifluoromethoxy)phenyl)cyclopropyl)carbamate]	
582 µg/mL and 1200 µM	< 1 µM	CC(C)(N)CN(C(=O)C1CC1)C1(c2ccc(F)c(C(F)(F)F)c2)CC1 [N-(2-amino-2-methylpropyl)-N-(1-(4-fluoro-3-(trifluoromethyl)phenyl)cyclopropyl)cyclopropanecarboxamide]	
597 µg/mL and 1600 µM	< 1 µM	CN1CCC1CN(CC(C)(C)O)C1(c2ccc(F)c(C(F)(F)F)c2)CC1 (centres unmarked) [1-((1-(4-fluoro-3-(trifluoromethyl)phenyl)cyclopropyl)((1-methylazetidin-2-yl)methyl)amino)-2-methylpropan-2-ol]	
755 µg/mL and 1600 µM	< 0.3 µM	CC(C)(O)CN(CC1CCN1)C1(c2ccc(F)c(C(F)(F)F)c2)CC1 (centres unmarked) [1-((azetidin-2-ylmethyl)(1-(4-fluoro-3-(trifluoromethyl)phenyl)cyclopropyl)amino)-2-methyl propan-2-ol]	
598 µg/mL and 1700 µM	< 0.3 µM	COC(=O)N(CC1CCN1C)C1(c2ccc(F)c(C(F)(F)F)c2)CC1 (centres unmarked) [Methyl (1-(4-fluoro-3-(trifluoromethyl)phenyl)cyclopropyl)((1-methylazetidin-2-yl)methyl)carbamate]	
526 µg/mL and 1400 µM	< 0.3 µM	COC(=O)N(CC(C)(C)N)C1(c2cccc(C(F)(F)F)c2)CC1 [Methyl (2-amino-2-methylpropyl)(1-(3-(trifluoromethyl)phenyl)cyclopropyl)carbamate]	
482 µg/mL and 1700 µM	< 0.3 µM	CC(C)(N)CNC1(c2ccc(F)c(C(F)(F)F)c2)CC1 [N1-(1-(4-fluoro-3-(trifluoromethyl)phenyl)cyclopropyl)-2-methylpropane-1,2-diamine]	

Reference: patent US20240034717A1, “NOVEL POTASSIUM CHANNEL INHIBITORS” (Saniona A/S, priority 2020, published 2024)
